Tests used:
[1] = Dynamic Vapor Sorption (DVS) water-solid interaction; format: physicochemical
Procedure: Dynamic Vapor Sorption (DVS) The sample was placed into the DVS sample pan and dried under a stream of dry nitrogen at 25° C. with 0% RH. The moisture was gradually introduced into the system with a 10% RH increment up to 90% RH and the humidity was then decreased in a similar trend for desorption phase. The sorption and desorption data were collected with equilibration set to dm/dt 0.004%/min for 5 min/step. The minimum and maximum time for each step were set to 10 and 360 min. Two sorption/desorption cycles were performed.

[2] = preliminary physicochemical stability study in recommended packaging; details: 3 months
Procedure: The double packed LDPE bag was then placed inside an aluminum foil bag with appropriate amount of desiccant between the LDPE bag and the aluminum foil bag. The aluminum bag package was then placed in a High-Density PolyEthylene (HDPE) container and stored at temperature below 25° C.

[3] = accelerated condition 40° C./75% RH
[4] = long term storage condition 25° C./60% RH

- hygroscopicity (DVS result) ([1]; DVS isotherm, FIG. 4): hygroscopic material
- moisture uptake ([1]; DVS, humidity changing from 0% RH to 90% RH, 25° C.): approximately 8.9%
- solid form [2, 3]: remained as amorphous
- water content change [2, 3]: not increased
- solid form [2, 4]: remained as amorphous
- water content change [2, 4]: not increased
Structure (SMILES): CC[C@H](Nc1ncnc2nc[nH]c12)c1nc2cccc(F)c2c(=O)n1-c1ccccc1 [amorphous idelalisib, (S)-2-(1-(9H-purin-6-ylamino)propyl)-5-fluoro-3-phenylquinazolin-4(3H)-one]

Source: US20170260186A1, “PROCESS OF PREPARING AMORPHOUS FORM OF IDELALISIB” (ScinoPharm Taiwan, Ltd., priority 2016, published 2017)
